Reference: US5721103A, “Trienoic retinoid compounds and methods” (Ligand Pharmaceuticals Incorporated, priority 1995, dated 1998)
Each block holds one molecule with its values, some of them ahead of it.

Experiments:
Assay type in all cases: cell-based
[1] = test system: RARs and RXRs; experiment: Co-transfection assay, RAR and RXR receptors taken together; conditions: for activity on the RARs or RXRs (in words): any of the RARs or RXRs; for RAR activity (in words): RARs
Description: Utilizing the "cis-trans" or "co-transfection" assay described by Evans et al., Science, 240:889-95 (May 13, 1988), the disclosure of which is herein incorporated by reference, the retinoid compounds of the present invention were tested and found to have strong, specific activity as either selective RAR agonists, selective RXR agonists, or as pan-agonist activators of both RAR and RXR receptors. This assay is described in further detail in U.S. Pat. Nos. 4,981,784 and 5,071,773, the disclosures of which are incorporated herein by reference.
In the co-transfection assay, a cloned cDNA for an IR (e.g., human RARα, RARβ, RXRγ) under the control of a constitutive promoter (e.g., the SV 40 promoter) is introduced by transfection (a procedure to induce cells to take up foreign genes) into a background cell substantially devoid of endogenous IRs. This introduced gene directs the recipient cells to make the IR protein of interest. A second gene is also introduced (co-transfected) into the same cells in conjunction with the IR gene. This second gene, comprising the cDNA for a reporter protein, such as firefly luciferase (LUC), is controlled by an appropriate hormone responsive promoter containing a hormone response element (HRE). This reporter plasmid functions as a reporter for the transcription-modulating activity of the target IR. Thus, the reporter acts as a surrogate for the products (mRNA then protein) normally expressed by a gene under control of the target receptor and its native hormone.
The co-transfection assay can detect small molecule agonists or antagonists of target IRs. Exposing the transfected cells to an agonist ligand compound increases reporter activity in the transfected cells. This activity can be conveniently measured, e.g., by increasing luciferase production, which reflects compound-dependent, IR-mediated increases in reporter transcription. […] . Increasing concentrations of a suspected antagonist will decrease the reporter signal (e.g., luciferase production). The co-transfection assay is therefore useful to detect both agonists and antagonists of specific IRs. Furthermore, it determines not only whether a compound interacts with a particular IR, but whether this interaction mimics (agonizes) or blocks (antagonizes) the effects of the native regulatory molecules on target gene expression, as well as the specificity and strength of this interaction.
To determine RAR and/or RXR agonist activity of the compounds of the present invention, the CV-1 cells were transiently transfected by calcium phosphate coprecipitation according to the procedure of Berger et al., 41 J. Steroid Biochem. Mol. Biol., 733 (1992) with the following receptor expressing plasmids: pRShRARα: Giguere et at., 330 Nature, 624 (1987); pRShRARβ and pRShRARγ, Ishikawa et al., 4 Mol. Endocrin., 837 (1990); pRShRXRα, Mangelsdorf et at., 345 Nature, 224 (1990); and pRSmRXRβ and pRSmRXRγ, Mangelsdorf et al., 6 Genes & Devel., 329 (1992), the disclosures of which are herein incorporated by reference. Each of these receptor expressing plasmids was co-transfected at a concentration of 5 ng/well, along with a basal reporter plasmid at 100 ng/well, the internal control plasmid pRS-β-Gal at 50 ng/well and filler DNA, pGEM at 45 ng/well.

[2] = target: T1, RARβ (Homo sapiens, UniProt P10826); experiment: Co-transfection assay, RARβ agonist activity; conditions: CV-1 cells, 40 hours, read-out: Potency (EC50) RARβ
T1 construct: expressed in transfected cells; host or cells: CV-1 (African green monkey kidney)
T1 sequence (P10826 1-448 isoform P10826-2): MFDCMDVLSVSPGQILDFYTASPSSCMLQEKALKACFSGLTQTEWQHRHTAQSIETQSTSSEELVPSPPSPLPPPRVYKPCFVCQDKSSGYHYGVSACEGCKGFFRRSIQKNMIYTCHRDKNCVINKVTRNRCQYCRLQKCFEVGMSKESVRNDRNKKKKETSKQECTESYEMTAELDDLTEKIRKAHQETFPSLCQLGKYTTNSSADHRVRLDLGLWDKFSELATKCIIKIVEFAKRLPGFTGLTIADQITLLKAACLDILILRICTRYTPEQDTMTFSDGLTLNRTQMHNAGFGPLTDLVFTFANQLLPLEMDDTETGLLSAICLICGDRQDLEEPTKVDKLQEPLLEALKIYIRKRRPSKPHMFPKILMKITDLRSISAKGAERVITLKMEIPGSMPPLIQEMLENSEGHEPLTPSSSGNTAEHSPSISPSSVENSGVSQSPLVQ

[3] = target: T2, RARγ (Homo sapiens, UniProt P13631); experiment: Co-transfection assay, RARγ agonist activity; conditions: CV-1 cells, 40 hours, read-out: Potency (EC50) RARγ
T2 construct: expressed in transfected cells; host or cells: CV-1 (African green monkey kidney)
T2 sequence (P13631 1-454): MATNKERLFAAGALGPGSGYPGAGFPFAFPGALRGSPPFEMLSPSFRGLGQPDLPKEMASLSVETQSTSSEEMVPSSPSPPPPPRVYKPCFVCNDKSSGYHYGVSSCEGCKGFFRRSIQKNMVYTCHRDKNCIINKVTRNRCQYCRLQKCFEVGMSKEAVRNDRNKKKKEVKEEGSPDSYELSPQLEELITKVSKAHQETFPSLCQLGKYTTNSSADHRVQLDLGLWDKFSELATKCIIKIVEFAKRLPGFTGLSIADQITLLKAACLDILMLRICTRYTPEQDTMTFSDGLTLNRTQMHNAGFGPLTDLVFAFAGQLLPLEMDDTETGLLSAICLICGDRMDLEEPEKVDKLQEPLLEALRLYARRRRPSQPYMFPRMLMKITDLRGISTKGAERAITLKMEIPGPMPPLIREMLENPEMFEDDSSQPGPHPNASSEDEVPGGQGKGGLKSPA

[4] = target: T3, RXRβ (Mus musculus, UniProt P28704); experiment: Co-transfection assay, RXRβ agonist activity; conditions: CV-1 cells, 40 hours, read-out: Potency (EC50) RXRβ
T3 construct: expressed in transfected cells; host or cells: CV-1 (African green monkey kidney)
T3 sequence (P28704 1-520): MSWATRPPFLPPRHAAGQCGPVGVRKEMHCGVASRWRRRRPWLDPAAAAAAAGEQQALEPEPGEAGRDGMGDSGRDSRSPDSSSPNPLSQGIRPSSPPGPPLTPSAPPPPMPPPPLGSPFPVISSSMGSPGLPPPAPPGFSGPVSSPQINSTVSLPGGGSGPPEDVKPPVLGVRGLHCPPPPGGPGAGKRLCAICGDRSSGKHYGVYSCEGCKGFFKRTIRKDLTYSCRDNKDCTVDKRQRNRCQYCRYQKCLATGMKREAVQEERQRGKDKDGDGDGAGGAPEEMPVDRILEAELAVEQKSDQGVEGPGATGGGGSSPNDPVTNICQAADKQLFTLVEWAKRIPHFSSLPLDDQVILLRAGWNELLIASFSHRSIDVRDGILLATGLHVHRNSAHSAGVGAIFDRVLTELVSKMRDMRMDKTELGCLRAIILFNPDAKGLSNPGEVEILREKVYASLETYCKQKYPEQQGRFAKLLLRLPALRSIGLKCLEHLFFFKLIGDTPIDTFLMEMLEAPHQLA

[5] = target: T4, RXRγ (Mus musculus, UniProt P28705); experiment: Co-transfection assay, RXRγ agonist activity; conditions: CV-1 cells, 40 hours, read-out: Potency (EC50) RXRγ
T4 construct: expressed in transfected cells; host or cells: CV-1 (African green monkey kidney)
T4 sequence (P28705 1-463): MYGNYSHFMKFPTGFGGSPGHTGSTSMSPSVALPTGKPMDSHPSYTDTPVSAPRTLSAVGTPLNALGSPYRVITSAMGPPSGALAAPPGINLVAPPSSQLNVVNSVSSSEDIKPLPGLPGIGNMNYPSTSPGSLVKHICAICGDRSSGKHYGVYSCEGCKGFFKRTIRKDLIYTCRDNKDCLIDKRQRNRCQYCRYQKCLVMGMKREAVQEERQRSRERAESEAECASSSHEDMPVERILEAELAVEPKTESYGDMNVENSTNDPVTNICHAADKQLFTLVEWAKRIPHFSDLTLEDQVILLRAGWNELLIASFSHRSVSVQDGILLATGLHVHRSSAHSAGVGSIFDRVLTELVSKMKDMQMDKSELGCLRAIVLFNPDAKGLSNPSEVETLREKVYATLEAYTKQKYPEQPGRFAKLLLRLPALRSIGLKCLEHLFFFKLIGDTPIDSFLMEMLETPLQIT

[6] = target: T5, RXRα (Homo sapiens, UniProt P19793); experiment: Co-transfection assay, RXRα agonist activity; conditions: CV-1 cells, 40 hours, read-out: Potency (EC50) RXRα
T5 construct: expressed in transfected cells; host or cells: CV-1 (African green monkey kidney)
T5 sequence (P19793 1-462): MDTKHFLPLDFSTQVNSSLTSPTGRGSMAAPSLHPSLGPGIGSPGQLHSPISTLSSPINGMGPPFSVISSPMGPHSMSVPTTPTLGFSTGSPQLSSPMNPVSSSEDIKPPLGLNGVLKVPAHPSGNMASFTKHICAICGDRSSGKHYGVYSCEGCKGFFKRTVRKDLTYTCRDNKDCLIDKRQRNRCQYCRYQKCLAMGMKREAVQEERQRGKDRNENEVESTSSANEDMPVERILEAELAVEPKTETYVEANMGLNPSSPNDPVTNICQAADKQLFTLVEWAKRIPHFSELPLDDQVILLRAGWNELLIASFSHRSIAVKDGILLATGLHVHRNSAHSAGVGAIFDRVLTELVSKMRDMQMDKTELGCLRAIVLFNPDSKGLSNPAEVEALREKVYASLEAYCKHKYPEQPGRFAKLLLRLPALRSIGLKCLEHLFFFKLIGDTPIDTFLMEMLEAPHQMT

[7] = target: T6, RARα (Homo sapiens, UniProt P10276); experiment: Co-transfection assay, RARα agonist activity; conditions: CV-1 cells, 40 hours, read-out: Potency (EC50) RARα
T6 construct: expressed in transfected cells; host or cells: CV-1 (African green monkey kidney)
T6 sequence (P10276 1-462): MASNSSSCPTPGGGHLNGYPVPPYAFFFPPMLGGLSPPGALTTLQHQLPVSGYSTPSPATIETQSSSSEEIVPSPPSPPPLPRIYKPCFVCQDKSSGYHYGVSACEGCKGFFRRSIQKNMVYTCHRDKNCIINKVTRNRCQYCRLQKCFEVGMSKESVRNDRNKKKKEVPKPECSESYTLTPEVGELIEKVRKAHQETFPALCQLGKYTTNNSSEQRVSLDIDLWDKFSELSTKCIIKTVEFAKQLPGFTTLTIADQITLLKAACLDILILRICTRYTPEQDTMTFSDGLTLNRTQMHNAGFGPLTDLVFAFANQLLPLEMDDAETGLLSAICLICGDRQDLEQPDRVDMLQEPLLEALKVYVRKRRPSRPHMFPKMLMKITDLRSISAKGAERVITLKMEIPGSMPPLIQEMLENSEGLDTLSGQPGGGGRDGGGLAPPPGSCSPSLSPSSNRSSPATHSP

- activity on the RARs or RXRs (in words) [1]: no, or virtually no, activity
SMILES: COc1ccc(/C(C)=C/C=C/C(C)=C/C(=O)O)cc1OC [A, (2E,4E,6E)-3-methyl-7-(3,4-dimethoxyphenyl)octa-2,4,6-trienoic acid, reference compound]

- potency profile in comparison to 9-cis retinoic acid (in words) ([1]; versus 9-cis, pan-agonist): superior potency profile
SMILES: C/C(=C/C=C/C(C)=C/C(=O)O)c1cc(C(C)C)cc(C(C)C)c1 [Compound 43, (2E, 4E, 6Z)-7-(3,5-Di-isopropylphenyl)-3-methylocta-2,4,6-trienoic acid]

- activity on the RARs or RXRs (in words) [1]: no, or virtually no, activity
SMILES: COc1ccc(/C(C)=C/C=C/C(C)=C/C(=O)O)cc1 [B, (2E,4E,6E)-3-methyl-7-(4-methoxyphenyl)octa-2,4,6-trienoic acid, reference compound]

- EC50 [2]: 37 nM
- EC50 [3]: 33 nM
- EC50 [4]: 21 nM
- EC50 [5]: 224 nM
- EC50 [6]: 1440 nM
- EC50 [7]: 223 nM
SMILES: CC(/C=C/C=C(\C)c1ccc(C(C)(C)C)cc1)=C\C(=O)O [Compound 44, (2E, 4E, 6E)-7-(4-T-butyl-phenyl)-3-methylocta-2,4,6-trienoic acid]

- RAR activity (in words) [1]: extremely potent RAR active compounds
SMILES: CC(/C=C/C=C1\CCOc2c1cc(C(C)(C)C)cc2C(C)(C)C)=C\C(=O)O [Compound 39, (2E,4E,6E)-6-(6,8,-Di-t-butylchroman-4-ylidene)-3-methylhexa-2,4,6-trienoicacid]

- activity on the RARs or RXRs (in words) [1]: no, or virtually no, activity
SMILES: COC(/C=C/C=C(\C)c1ccc(C(C)(C)C)cc1)=C/C(=O)O [D, (2E,4E,6E)-3-methoxy-7-(4-t-butylphenyl)octa-2,4,6-trienoic acid, reference compound]

- RAR activity (in words) [1]: extremely potent RAR active compounds
- selectivity among RARs (in words) ([1]; RARβ and RARγ): selectivity on RARβ and RARγ
SMILES: COc1c(C(C)(C)C)cc(/C(C)=C/C=C/C(C)=C/C(=O)O)cc1C(C)(C)C [Compound 47, (2E, 4E, 6E) -3-Methyl-7-(3,5-di-t-butyl-4-methoxyphenyl)octa-2,4,6-trienoic acid]

SMILES: CCC/C(=C/C=C/C(C)=C/C(=O)O)c1cc(C(C)(C)C)cc(C(C)(C)C)c1 [Compound 28, (2E, 4E, 6Z)-7-(3,5-Di-t-butylphenyl)-3-methyldeca-2,4,6-trienoic acid]
- RXR activity (in words) ([1]; RXRs): very potent and selective RXR active compound

- RAR activity (in words) [1]: extremely potent RAR active compounds
SMILES: CC(/C=C/C=C(\C)c1cc(C(F)(F)F)cc(C(F)(F)F)c1)=C\C(=O)O [Compound 41, (2E, 4E, 6E)-7-(3,5-Di-trifluoromethylphenyl)-3-methylocta-2,4,6-trienoic acid]

- activity on the RARs or RXRs (in words) [1]: no, or virtually no, activity
SMILES: COc1cc(C)c(/C=C/C=C/C=C(\C)C(=O)O)c(C)c1C [C, (2E,4E,6E)-2-methyl-7-(2,3,6-trimethyl-4-methoxyphenyl)hepta-2,4,6-trienoic acid, reference compound]
